In patent publication US20220057378A1, “MICROBIAL MICROFLUIDIC BIOSENSOR” (priority 2015, published 2022):

Key:
E. coli MG1655/Pb7 [1] = test: 8-strain chip induction (fluorescence induction ratio); format: cell-based; details: toxin at t=0, pure water at t=2 hours; arsenic 0.2, cadmium 0.05, chromium(VI) 0.5, copper 5, lead 1.8 μM
Text: (§1) An overview of the sensor can be seen in FIG. 39. In order to acquire the large amount of data required to successfully train the classifier, five replicates of the fully self-contained device prototype were built, in which the microfluidic devices are mounted and imaged using custom-designed optics as shown in some embodiments herein (Milestone 6.9). The majority of the data for this project was acquired using a novel microfluidic device capable of housing eight different bacterial strains that receive media from a shared source. […] The design was expanded to house 18 strains and we have begun taking data with this new chip to provide larger datasets to the classifier. A detailed CAD drawing of this device can be seen in FIG. 56. The 18 cell trapping regions are vacuum-loaded from 18 downstream fluidic ports. Long, serpentine channels upstream of the trapping regions serve as fluidic buffer zones to prevent the cross-contamination of strains while loading. The toxin concentration is controlled dynamically by a peristaltic pump that mixes a water/toxin combination (representing the source water stream) with a concentrated medium stock.
(§2) In each panel, the time series data for the “on-target” responding strain is plotted in bold.

GFP sensor strains = test: SVM classification of GFP sensor responses (toxin / no toxin); format: cell-based; details: from classification accuracy and ROC curves
Text: Computational models to determine the threshold of detection for specific sensors based on models of experimental GFP responses. We used machine learning techniques to determine the relationships between the GFP output signal and the presence of a toxin. We have created a database containing the collected sensor response data. We have quantified the GFP threshold of detection for each sensor construct. We have constructed Receiver Operating Characteristic (ROC) curves for each sensor to achieve robust sensing. We constructed machine learning models capable of inferring the relationships between the GFP sensor responses and the presence or absence of a toxin at a given concentration. The algorithm learns these relationships from a set of training samples (GFP sensor responses) defined by the set of experimental conditions from which they were generated. The aim of the algorithm is to provide a general method capable of determining the experimental conditions associated with GFP sensor responses through the use of historical data. Specifically, we have built classification models based on Support Vector Machines (SVMs), which is one of the most popular classifiers due to its excellent performance in many contexts and its solid mathematical basis (1). For each toxin and concentration, we solved a binary classification problem in which the positive class represents the presence of the toxin in water and the negative class is associated with clean environments. Patterns were constructed with features containing GFP sensor responses at various timestamps to capture the temporal dynamics of the GFP signal. The optimal meta-parameters of the SVM classifier were determined by applying a 5-crossvalidation during the training phase (2). In order to have a reliable estimate of the performance of the model when deployed in real environments, we measured its performance over a set of samples (test patterns) not seen during the training phase. The SVM's performance was determined by the percentage of test samples correctly labeled as toxin/no toxin (classification accuracy). 80% of samples were used for training the SVM models and the remaining 20% of samples was used to evaluate their effectiveness. We generated 20 random training/test partitions to have an estimate of performance independent of the data partition.
Specifically, we have built classification models based on Support Vector Machines (SVMs), which is one of the most popular classifiers due to its excellent performance in many contexts and its solid mathematical basis. For each toxin and concentration, we solved a binary classification problem in which the positive class represents the presence of the toxin in water and the negative class is associated with clean environments. Patterns were constructed with features containing GFP sensor responses at various timestamps to capture the temporal dynamics of the GFP signal. The optimal meta-parameters of the SVM classifier were determined by applying a 5-crossvalidation during the training phase.
In order to have a reliable estimate of the performance of the model when deployed in real environments, we measured its performance over a set of samples (test patterns) not seen during the training phase. The SVM's performance was determined by the percentage of test samples correctly labeled as toxin/no toxin (classification accuracy). 80% of samples were used for training the SVM models and the remaining 20% of samples was used to evaluate their effectiveness. We generated 20 random training/test partitions based on data collected in single-strain chips (no crosstalk data) to have an estimate of performance.

E. coli MG1655/Hg3 [2] = test: 8-strain chip induction (fluorescence induction ratio); format: cell-based; details: toxin at t=0, pure water at t=2 hours; cadmium 0.05, mercury 0.2 μM
Text: as §1, §2

E. coli MG1655/Cd1 = test: as above; format: cell-based; details: toxin at t=0, pure water at t=2 hours; cadmium 0.05, lead 1.8 μM
Text: as §1, §2

E. coli MG1655/Cu1 [3] = test: as above; format: cell-based; details: toxin at t=0, pure water at t=2 hours; copper 5, lead 1.8 μM
Text: as §1, §2

E. coli MG1655/Cu1 [4] = test: on-chip time-lapse induction of promoter construct (GFP, gill chip); format: cell-based
Experimental: (§4) For on-chip induction experiments, strains were loaded into the device and grown in M9 minimal medium with 0.4% glucose and 50 μg/ml spectinomycin (for plasmid maintenance) for 2 days in the absence of toxin. Cells were imaged under 4× brightfield and GFP fluorescence filters on an Olympus IX-81 microscope every 2 min for 6 h under these non-inducing conditions to generate a fluorescence baseline. The toxin was then introduced to induce GFP expression and the cells were imaged every 2 min for 6 h.
(§5) To determine the response to toxin induction, the raw fluorescence images before and after induction were compared. The image stacks were analyzed using a custom ImageJ script to measure the average GFP signal over time for each cell trap. Any linear trend in the uninduced fluorescence data due to cell growth was subtracted from the data. In this manner, the dynamic signal-to-noise ratio (SNR) was calculated as: (current fluorescence−mean uninduced fluorescence)/(standard deviation of uninduced fluorescence).
(§6) This microfluidic platform was then used to measure the response of several toxin responsive promoter constructs identified from the literature and synthesized by Transcriptic. […] Note that SNR values greater than 2 indicate a significant response.

E. coli MG1655/Pb7 [5] = test: 18-strain chip induction; format: cell-based
Text: (§3) In an embodiment herein, the toxin response data across 18 unique sensing strains were also collected using a new chip design that houses 16 E. coli strains and 2 B. subtilis strains. The B. subtilis NCIB 3610/Amm3 construct is a “lights-off” sensor, meaning that GFP production drops when ammonium is introduced, following a slight increase due to faster growth on this preferred nitrogen source. […] By combining these sensor responses, we can identify cobalt by the unique response of Pb7 alone and lead by the unique combination of Zn6, Pb7, and Pb8 responses.

E. coli MG1655/Zn6 = test: 18-strain chip induction; format: cell-based; details: Zn6, Pb7, Pb8 in descending magnitude
Text: as §3

E. coli MG1655/Pb8 = test: 18-strain chip induction; format: cell-based; details: Zn6, Pb7, Pb8 in descending magnitude
Text: as §3

E. coli MG1655/Hg3 [6] = tested on: E. coli MG1655/Hg3
Experimental: as §4, §5, §6

[As] [Arsenic]
GFP response of strain Pb7 (E. coli MG1655/Pb7 [1]): smaller response

[Cd] [Cadmium]
threshold of detection (GFP sensor strains): 0.44 µM | GFP response of strain Pb7 (E. coli MG1655/Pb7 [1]): much larger response | GFP response of strain Hg3 (E. coli MG1655/Hg3 [2]): responding | GFP response of strain Cd1 (E. coli MG1655/Cd1): responding

[Cr+6] [Chromium(VI)]
threshold of detection (GFP sensor strains): 1.25 µM | GFP response of strain Pb7 (E. coli MG1655/Pb7 [1]): equal magnitude but more rapid response

[Cu] [Copper]
threshold of detection (GFP sensor strains): 5 µM | GFP response of strain Pb7 (E. coli MG1655/Pb7 [1]): smaller response | GFP response of strain Cu1 (E. coli MG1655/Cu1 [3]): sensitively responding | SNR after 6 h (E. coli MG1655/Cu1 [4]; 25 μM copper, 6 h induction, SNR > 2 = significant response): 65 | Concentration Sensed in Microfluidic Device (E. coli MG1655/Cu1 [4]; cueR/pcopA from E. coli genome, native RBS): 25 µM

[Pb] [Lead]
threshold of detection (GFP sensor strains): 1.8 µM | GFP response of strain Pb7 (E. coli MG1655/Pb7 [5]): respond sensitively | GFP response of strain Zn6 (E. coli MG1655/Zn6): respond sensitively | GFP response of strain Pb8 (E. coli MG1655/Pb8): respond sensitively | GFP response of strain Pb7 (E. coli MG1655/Pb7 [1]): responding | GFP response of strain Cu1 (E. coli MG1655/Cu1 [3]): responding at lesser magnitudes | GFP response of strain Cd1 (E. coli MG1655/Cd1): responding at lesser magnitudes

Mercury
SNR after 6 h (E. coli MG1655/Hg3 [6]; 0.1 μM mercury, 6 h induction, SNR > 2 = significant response): 20 | Concentration Sensed in Microfluidic Device (E. coli MG1655/Hg3 [6]; merR/pmerR from E. coli plasmid, synthetic RBS): 0.1 µM | threshold of detection (GFP sensor strains): 1 µM | GFP response of strain Hg3 (E. coli MG1655/Hg3 [2]): sensitively responding
